Reference: PMC7129073 (Clinical Microbiology and Infection, 2015)
Converted amounts (≈) assume the structure as drawn. Like-named read-outs stand apart in the source and are kept apart here.

Legend:
H.influenzae = test: Broth microdilution; format: cell-based, Haemophilus influenzae
S. pneumoniae [1] = test: Broth microdilution; format: cell-based, Streptococcus pneumoniae
PRSP = test: Broth microdilution; format: cell-based, Streptococcus pneumoniae
ERSP = test: Broth microdilution; format: cell-based, Streptococcus pneumoniae
S. pneumoniae [2] = test: MIC of invasive strains, Saint George Hospital 2001–2004; format: cell-based, Streptococcus pneumoniae
E. coli [3] = test: E-test susceptibility; format: cell-based, Escherichia coli
MSSA = test: Agar dilution MIC; format: cell-based, Staphylococcus aureus
S. pneumoniae (SPN) = test: NCCLS broth microdilution, fluoroquinolones 1999–2004; format: cell-based, Streptococcus pneumoniae; conditions: for MIC50 / MIC90: Streptococcus pneumoniae
K. pneumoniae [4] = test: E-test susceptibility; format: cell-based, Klebsiella pneumoniae
Enterobacter spp = test: E-test susceptibility; format: cell-based
Acinetobacter = test: Disk diffusion; format: cell-based; conditions: 37 isolates selected as resistant to beta-lactams
Escherichia coli = test: Vitek 2 susceptibility, urine isolates of children; format: cell-based
K. pneumoniae [5] = test: MIC; format: cell-based, Klebsiella pneumoniae; conditions: Klebsiella pneumoniae
[6] = test system: inducible Enterobacteriaceae; test: SMART 2003, intraabdominal isolates; format: cell-based
Enterobacteriaceae = test: SMART 2003 Europe, microdilution; format: cell-based; conditions: 1948 isolates
E. coli [7] = test: SMART 2003 Europe, microdilution; format: cell-based, Escherichia coli; conditions: 1106 isolates
Klebsiella = test: SMART 2003 Europe, microdilution; format: cell-based, Klebsiella spp.; conditions: 341 isolates
K. oxytoca = test: E-test susceptibility; format: cell-based, Klebsiella oxytoca
Shigella spp. = test: Disk diffusion, stool isolates Tehran; format: cell-based; conditions: 96 isolates
[8] = test system: Streptococcus agalactiae strains P0162 and P0425; test: Microdilution; format: cell-based
F. necrophorum = test: E-test, 13 clinical isolates; format: cell-based, Fusobacterium necrophorum
[9] = NCCLS breakpoints (Amox/Clav 2/1 mcg/mL)
[10] = ICU, SRGA breakpoints, tigecycline tentative S ≤2 μg/ml

Question: With CO/N=C(\C(=O)N[C@@H]1C(=O)N2C(C(=O)O)=C(COC(N)=O)CS[C@H]12)c1ccco1 [Cefuroxime, cefuroxim] as the molecule, how does the MIC90 (H.influenzae) read?
Answer: 2 µg/mL (≈ 4.71 µM)

Question: What about the “%Sus” value (H.influenzae; NCCLS) of the same molecule?
Answer: 96.7%

Question: What about the MIC90 (S. pneumoniae [1]) of the same molecule?
Answer: 8 µg/mL (≈ 18.9 µM)

Question: And the “%Sus” value (S. pneumoniae [1]; [9])?
Answer: 65.2%

Question: And the MIC90 (PRSP)?
Answer: 8 µg/mL (≈ 18.9 µM)

Question: And the “%Sus” value (PRSP; [9])?
Answer: 0.7%

Question: And the MIC90 (ERSP)?
Answer: 8 µg/mL (≈ 18.9 µM)

Question: And the “%Sus” value (ERSP; [9])?
Answer: 26.0%

Question: What about the “% S” value (S. pneumoniae [2]) of the same molecule?
Answer: 95.2%

Question: What about the “%R” value (S. pneumoniae [2]) of the same molecule?
Answer: 4.8%

Question: What about the Susceptible isolates (E. coli [3]; [10]) of the same molecule?
Answer: 92%

Question: And the Susceptible isolates (E. coli [3]; non ICU)?
Answer: 94%

Question: Cc1onc(-c2ccccc2Cl)c1C(=O)N[C@@H]1C(=O)N2[C@@H]1SC(C)(C)[C@@H]2C(=O)O [Cloxacilin, cloxacillin] was tested. Which MIC50 (MSSA; Staphylococcus aureus, MSSA) did it give?
Answer: < 0.25 µg/mL

Question: What about the MIC90 (MSSA; Staphylococcus aureus, MSSA) of the same molecule?
Answer: < 0.25 µg/mL

Question: And the MIC range (MSSA; n = 200)?
Answer: 125 to 16000 µg/mL

Question: What does the source list for CO/N=C1\CN(c2nc3c(cc2F)c(=O)c(C(=O)O)cn3C2CC2)CC1CN (stereo not drawn) [GEMI, gemifloxacin]?
Answer: MIC range (S. pneumoniae (SPN)): 0.25 to 2 µg/mL; % I (S. pneumoniae (SPN); 1999 (554)): 0.4%; % S (S. pneumoniae (SPN); 1999 (554)): 99.6%; %R (S. pneumoniae (SPN); 1999 (554)): 0.0%; % I (S. pneumoniae (SPN); 2000 (508)): 0.2%; % S (S. pneumoniae (SPN); 2000 (508)): 99.6%; %R (S. pneumoniae (SPN); 2000 (508)): 0.2%; % I (S. pneumoniae (SPN); 2001 (1.435)): 0.3%; % S (S. pneumoniae (SPN); 2001 (1.435)): 99.4%; %R (S. pneumoniae (SPN); 2001 (1.435)): 0.3%; % I (S. pneumoniae (SPN); 2002 (1.502)): 0.3%; % S (S. pneumoniae (SPN); 2002 (1.502)): 99.5%; %R (S. pneumoniae (SPN); 2002 (1.502)): 0.2%; % I (S. pneumoniae (SPN); 2003 (890)): 0.0%; % S (S. pneumoniae (SPN); 2003 (890)): 100.0%; %R (S. pneumoniae (SPN); 2003 (890)): 0.0%; % I (S. pneumoniae (SPN); 2004 (1.003)): 0.7%; % S (S. pneumoniae (SPN); 2004 (1.003)): 99.2%; %R (S. pneumoniae (SPN); 2004 (1.003)): 0.1%; % I (S. pneumoniae (SPN); All years (5.892)): 0.3%; % S (S. pneumoniae (SPN); All years (5.892)): 99.5%; %R (S. pneumoniae (SPN); All years (5.892)): 0.2%; MIC50 (S. pneumoniae (SPN)): 0.5 µg/mL (≈ 1.28 µM); MIC90 (S. pneumoniae (SPN)): 1 µg/mL (≈ 2.57 µM); MIC50 (S. pneumoniae (SPN); 1999 (554)): ≤ 0.03 µg/mL; MIC90 (S. pneumoniae (SPN); 1999 (554)): ≤ 0.03 µg/mL; MIC50 (S. pneumoniae (SPN); 2000 (508)): ≤ 0.03 µg/mL; MIC90 (S. pneumoniae (SPN); 2000 (508)): ≤ 0.03 µg/mL; MIC50 (S. pneumoniae (SPN); 2001 (1.435)): 0.016 µg/mL (≈ 0.0411 µM); MIC90 (S. pneumoniae (SPN); 2001 (1.435)): 0.03 µg/mL (≈ 0.077 µM); MIC50 (S. pneumoniae (SPN); 2002 (1.502)): 0.016 µg/mL (≈ 0.0411 µM); MIC90 (S. pneumoniae (SPN); 2002 (1.502)): 0.03 µg/mL (≈ 0.077 µM); MIC50 (S. pneumoniae (SPN); 2003 (890)): 0.016 µg/mL (≈ 0.0411 µM); MIC90 (S. pneumoniae (SPN); 2003 (890)): 0.03 µg/mL (≈ 0.077 µM); MIC50 (S. pneumoniae (SPN); 2004 (1.003)): 0.016 µg/mL (≈ 0.0411 µM); MIC90 (S. pneumoniae (SPN); 2004 (1.003)): 0.03 µg/mL (≈ 0.077 µM); MIC50 (S. pneumoniae (SPN); All years (5.892)): 0.016 µg/mL (≈ 0.0411 µM); MIC90 (S. pneumoniae (SPN); All years (5.892)): 0.03 µg/mL (≈ 0.077 µM); MIC90 (S. pneumoniae (SPN); read-out: MIC90 during the six years, 1999–2004): 0.03 µg/mL (≈ 0.077 µM)

Question: How did the Susceptible isolates (K. pneumoniae [4]; ICU) turn out when CN(C)c1cc(NC(=O)CNC(C)(C)C)c(O)c2c1C[C@H]1C[C@H]3[C@H](N(C)C)C(O)=C(C(N)=O)C(=O)[C@@]3(O)C(O)=C1C2=O [Tigecycline] was run?
Answer: 93%

Question: What about the Susceptible isolates (K. pneumoniae [4]; non ICU) of the same molecule?
Answer: 98%

Question: And the Susceptible isolates (Enterobacter spp; ICU)?
Answer: 91%

Question: And the Susceptible isolates (Enterobacter spp; non ICU)?
Answer: 96%

Question: With CC1(C)S[C@@H]2[C@H](NC(=O)C(C(=O)O)c3ccccc3)C(=O)N2[C@H]1C(=O)O (stereo partly drawn) [carbenicillin] as the molecule, how does the resistant isolates (Acinetobacter) read?
Answer: 100.0%

Question: For CC(=O)OCC1=C(C(=O)O)N2C(=O)[C@@H](NC(=O)Cc3cccs3)[C@H]2SC1 [cefalothin], which susceptibility rate (Escherichia coli; paediatric surgical unit (PSU)) is on record?
Answer: 19%

Question: What about the susceptibility rate (Escherichia coli; paediatric units (PU)) of the same molecule?
Answer: 66%

Question: For CO/N=C(\C(=O)N[C@@H]1C(=O)N2C(C(=O)[O-])=C(C[N+]3(C)CCCC3)CS[C@H]12)c1csc(N)n1 [cefepime], which MIC (K. pneumoniae [5]) is on record?
Answer: > 64 µg/mL

Question: What about the resistant isolates (Acinetobacter) of the same molecule?
Answer: 21.6%

Question: And the “% susceptible” value ([6]; A/P (N = 200))?
Answer: 89%

Question: And the “% susceptible” value ([6]; EU (N = 354))?
Answer: 97%

Question: And the “% susceptible” value ([6]; LA (N=113))?
Answer: 88%

Question: What about the “% susceptible” value ([6]; NA (N = 163)) of the same molecule?
Answer: 92%

Question: And the per cent susceptible (Enterobacteriaceae)?
Answer: 96%

Question: And the per cent susceptible (E. coli [7])?
Answer: 96%

Question: What about the per cent susceptible (Klebsiella) of the same molecule?
Answer: 94%

Question: And the Susceptible isolates (E. coli [3]; [10])?
Answer: 98%

Question: What about the Susceptible isolates (E. coli [3]; non ICU) of the same molecule?
Answer: 99%

Question: And the Susceptible isolates (K. pneumoniae [4]; ICU)?
Answer: 98%

Question: And the Susceptible isolates (K. pneumoniae [4]; non ICU)?
Answer: 100%

Question: And the Susceptible isolates (K. oxytoca; ICU)?
Answer: 100%

Question: And the Susceptible isolates (K. oxytoca; non ICU)?
Answer: 96%

Question: What about the Susceptible isolates (Enterobacter spp; ICU) of the same molecule?
Answer: 84%

Question: And the Susceptible isolates (Enterobacter spp; non ICU)?
Answer: 92%

Question: For CCN1CCN(C(=O)N[C@@H](C(=O)N[C@@H]2C(=O)N3C(C(=O)O)=C(CSc4nnnn4C)CS[C@H]23)c2ccc(O)cc2)C(=O)C1=O [cefoperazone], which resistant isolates (Acinetobacter) is on record?
Answer: 100.0%

Question: CO/N=C(\C(=O)N[C@@H]1C(=O)N2C(C(=O)O)=CCS[C@H]12)c1csc(N)n1 [ceftizoxime] was tested. Which sensitive (Shigella spp.) did it give?
Answer: 85%

Question: What about the resistant isolates (Acinetobacter) of the same molecule?
Answer: 86.5%

Question: How did the MIC ([8]; strain P0162 (ParC Ser79Phe, GyrA Glu85Ala)) turn out when NC1CCN(c2c(F)cc3c(=O)c(C(=O)O)cn(C4CC4)c3c2Cl)C1 (stereo not drawn) [clinafloxacin] was run?
Answer: 0.25 µg/mL (≈ 0.683 µM)

Question: What about the MIC ([8]; strain P0425 (ParC Ser79Phe, GyrA Glu85Lys)) of the same molecule?
Answer: 0.75 µg/mL (≈ 2.05 µM)

Question: Which resistant isolates (Acinetobacter) does the source give for C[C@H]1c2cccc(O)c2C(=O)C2=C(O)[C@]3(O)C(=O)C(C(N)=O)=C(O)[C@@H](N(C)C)[C@@H]3[C@@H](O)[C@@H]21 [doxycycline] here?
Answer: 54.1%

Question: What about the MIC range (F. necrophorum) of the same molecule?
Answer: 0.016 to 0.75 µg/mL

Question: What about the MIC50 (F. necrophorum; Fusobacterium necrophorum) of the same molecule?
Answer: 0.064 µg/mL (≈ 0.144 µM)

Question: And the MIC90 (F. necrophorum; Fusobacterium necrophorum)?
Answer: 0.19 µg/mL (≈ 0.428 µM)
